According to ChEMBL document CHEMBL5104196, “Discovery of Novel, Potent, and Selective Small-Molecule Menin-Mixed Lineage Leukemia Interaction Inhibitors through Attempting Introduction of Hydrophilic Groups” (J Med Chem, 2022):
Activity calls are given as the source filed them. The calls are words filed in the database; no cut-off is given here.

How the values were obtained:
MV4-11 [1] = test: Antiproliferative activity against human MV4-11 cells harboring MLL-AF4 assessed as cell growth inhibition measured for 72 hrs by MTT assay; format: functional, cell-based; details: MV4-11, 72 h
HL-60 = test: Antiproliferative activity against human […] assessed as cell growth inhibition measured for 72 hrs by MTT assay; format: functional, cell-based; details: HL-60, 72 h
MV4-11 [2] = test: Downregulation of HOXA9 gene in human MV4-11 cells incubated for 24 hrs by real-time PCR analysis; format: functional, cell-based; details: dose 0.1-10 µM, DDE = dose-dependent effect
MV4-11 [3] = test: Downregulation of MEISI gene in human MV4-11 cells incubated for 24 hrs by real-time PCR analysis; format: functional, cell-based; details: dose 0.1-10 µM, DDE = dose-dependent effect
MV4-11 [4] = test: Induction of cell cycle arrest in human MV4-11 cells assessed as accumulation at G2/M phase at 0.1 to 10 uM incubated for 24 hrs by PI/RNase staining based flow cytometry analysis; format: functional; details: dose 0.1-10 µM
[5] = Metabolic stability in Crab eating monkey liver microsome assessed as half life measured upto 60 min by UPLC-MS/MS analysis; format: ADME, Macaca fascicularis; details: cynomolgus monkey, liver microsomes
[6] = Metabolic stability in CD-1 mouse liver microsome assessed as intrinsic clearance measured upto 60 min by UPLC-MS/MS analysis; format: ADME; details: microsomes, 1 h
[7] = Metabolic stability in Sprague-Dawley rat liver microsome assessed as intrinsic clearance measured upto 60 min by UPLC-MS/MS analysis; format: ADME; details: microsomes, 1 h
[8] = Metabolic stability in human liver microsome assessed as intrinsic clearance measured upto 60 min by UPLC-MS/MS analysis; format: ADME; details: microsomes, 1 h
[9] = Metabolic stability in Sprague-Dawley rat liver assessed as intrinsic clearance measured upto 60 min by UPLC-MS/MS analysis; format: ADME, tissue-based; details: read-out: CLH
[10] = Metabolic stability in Beagle dog liver assessed as intrinsic clearance measured upto 60 min by UPLC-MS/MS analysis; format: ADME, tissue-based, Canis lupus familiaris; details: read-out: CLH
[11] = Half life in Sprague-Dawley rat at 5 mg/kg, iv; format: ADME, organism-based; details: in vivo
[12] = Volume of distribution at steady state in Sprague-Dawley rat at 5 mg/kg, iv; format: ADME, organism-based; details: in vivo
[13] = Oral bioavailability in Sprague-Dawley rat at 15 mg/kg; format: ADME, organism-based; details: in vivo
MV4-11 [14] = test: Suppression of HOXA9 gene transcription in human MV4-11 cells xenografted in BALB/c nude mouse at 15 mg/kg, iv measured at 24 hrs by RT-PCR analysis; format: functional, organism-based

- IC50 (MV4-11 [1]): 300 nM
- IC50 (HL-60): > 10000 nM
- half-life [5]: 1.08 h
- CLint [6]: 7.2 µL/min/mg
- CLint [7]: 9.7 µL/min/mg
- CLint [8]: 8.4 µL/min/mg
- CLint scaled [9]: 17.5 mL/min/kg
- CLint scaled [10]: 20 mL/min/kg
- half-life [11]: 17.5 h
- Vdss [12]: 49.3 L/kg
- bioavailability [13]: 16.9%
Compound: CN(C)CCOc1ccc2ncnc(NC3CCN(CC4CN(c5ccc(S(=O)(=O)C6CC6)cc5)C4)CC3)c2n1
- Activity (MV4-11 [2]): Dde
- Activity (MV4-11 [3]): Dde
- Activity (MV4-11 [4]): Active
- Activity (MV4-11 [14]): Active
